Data as given in US11370794B2, “Toll-like receptor antagonist compounds and methods of use” (Dynavax Technologies Corporation, priority 2016, dated 2022).

What was measured:
[1] = target: T1, TLR-5 (Homo sapiens, UniProt O60602); experiment: Receptor specificity in primary human leukocytes: TLR-5; type: cell-based
T1 construct: related toll-like receptor family members and other nucleic acid intracellular signaling receptors in primary human leukocytes; endogenous in cells; host or cells: primary human leukocytes
T1 sequence (O60602 21-858): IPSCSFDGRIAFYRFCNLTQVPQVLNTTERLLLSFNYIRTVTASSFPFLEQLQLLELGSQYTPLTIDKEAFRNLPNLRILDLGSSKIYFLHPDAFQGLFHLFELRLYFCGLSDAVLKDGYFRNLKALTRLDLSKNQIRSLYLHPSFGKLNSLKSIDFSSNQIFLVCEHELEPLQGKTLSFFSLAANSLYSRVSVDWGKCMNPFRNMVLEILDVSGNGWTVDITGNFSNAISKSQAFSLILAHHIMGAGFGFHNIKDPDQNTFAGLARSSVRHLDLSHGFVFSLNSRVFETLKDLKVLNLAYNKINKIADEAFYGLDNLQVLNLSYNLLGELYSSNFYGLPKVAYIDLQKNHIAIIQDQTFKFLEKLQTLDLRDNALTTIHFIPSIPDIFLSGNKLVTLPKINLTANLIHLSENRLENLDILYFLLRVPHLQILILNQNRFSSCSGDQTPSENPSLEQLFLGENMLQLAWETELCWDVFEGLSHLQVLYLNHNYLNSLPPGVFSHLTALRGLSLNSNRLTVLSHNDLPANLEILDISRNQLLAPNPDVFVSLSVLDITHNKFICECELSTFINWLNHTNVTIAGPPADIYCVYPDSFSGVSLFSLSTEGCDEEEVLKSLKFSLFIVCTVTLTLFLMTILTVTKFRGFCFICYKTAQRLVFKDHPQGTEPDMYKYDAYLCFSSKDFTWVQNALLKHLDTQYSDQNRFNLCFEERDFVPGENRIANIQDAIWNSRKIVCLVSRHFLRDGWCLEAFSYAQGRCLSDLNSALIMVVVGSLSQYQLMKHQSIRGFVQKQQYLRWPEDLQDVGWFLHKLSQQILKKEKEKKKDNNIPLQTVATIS
Description: (§1) Example B5—Receptor Specificity
(§2) Representative compounds were tested for antagonist activity against related toll-like receptor family members and other nucleic acid intracellular signaling receptors in primary human leukocytes. The compounds were Compound Nos. 5 and 9, and they were tested for their ability to inhibit human RIG-I, TLR-2, TLR-4, and TLR-5. With one exception, neither compound was able to inhibit these receptors greater than 50% at 10 μM.

[2] = target: T2, TLR-2 (Homo sapiens, UniProt O60603); experiment: Receptor specificity in primary human leukocytes: TLR-2; type: cell-based
T2 construct: related toll-like receptor family members and other nucleic acid intracellular signaling receptors in primary human leukocytes; endogenous in cells; host or cells: primary human leukocytes
T2 sequence (O60603 21-784): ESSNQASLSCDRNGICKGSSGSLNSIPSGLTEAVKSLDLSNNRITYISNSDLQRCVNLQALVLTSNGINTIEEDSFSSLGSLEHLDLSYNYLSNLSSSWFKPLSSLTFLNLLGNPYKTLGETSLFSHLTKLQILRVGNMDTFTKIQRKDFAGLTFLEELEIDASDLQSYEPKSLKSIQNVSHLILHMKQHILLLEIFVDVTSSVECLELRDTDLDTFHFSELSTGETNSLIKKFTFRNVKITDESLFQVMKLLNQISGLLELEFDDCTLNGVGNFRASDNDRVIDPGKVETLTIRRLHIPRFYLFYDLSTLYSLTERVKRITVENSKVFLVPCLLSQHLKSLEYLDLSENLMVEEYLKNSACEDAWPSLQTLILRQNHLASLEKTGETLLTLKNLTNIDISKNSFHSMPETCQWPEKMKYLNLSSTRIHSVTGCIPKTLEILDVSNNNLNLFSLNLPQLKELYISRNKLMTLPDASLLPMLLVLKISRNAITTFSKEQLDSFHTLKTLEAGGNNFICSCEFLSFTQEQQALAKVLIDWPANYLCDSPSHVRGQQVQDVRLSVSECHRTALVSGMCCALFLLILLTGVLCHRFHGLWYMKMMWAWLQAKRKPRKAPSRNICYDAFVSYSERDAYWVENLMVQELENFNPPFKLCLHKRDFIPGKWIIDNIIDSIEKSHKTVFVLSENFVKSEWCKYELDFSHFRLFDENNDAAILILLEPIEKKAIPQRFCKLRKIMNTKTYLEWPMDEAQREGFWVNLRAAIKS
Description: as §1, §2

[3] = target: T3, human RIG-I (Homo sapiens, UniProt O95786); experiment: Receptor specificity in primary human leukocytes: RIG-I; type: cell-based
T3 construct: other nucleic acid intracellular signaling receptors in primary human leukocytes; endogenous in cells; host or cells: primary human leukocytes
T3 sequence (O95786 1-925): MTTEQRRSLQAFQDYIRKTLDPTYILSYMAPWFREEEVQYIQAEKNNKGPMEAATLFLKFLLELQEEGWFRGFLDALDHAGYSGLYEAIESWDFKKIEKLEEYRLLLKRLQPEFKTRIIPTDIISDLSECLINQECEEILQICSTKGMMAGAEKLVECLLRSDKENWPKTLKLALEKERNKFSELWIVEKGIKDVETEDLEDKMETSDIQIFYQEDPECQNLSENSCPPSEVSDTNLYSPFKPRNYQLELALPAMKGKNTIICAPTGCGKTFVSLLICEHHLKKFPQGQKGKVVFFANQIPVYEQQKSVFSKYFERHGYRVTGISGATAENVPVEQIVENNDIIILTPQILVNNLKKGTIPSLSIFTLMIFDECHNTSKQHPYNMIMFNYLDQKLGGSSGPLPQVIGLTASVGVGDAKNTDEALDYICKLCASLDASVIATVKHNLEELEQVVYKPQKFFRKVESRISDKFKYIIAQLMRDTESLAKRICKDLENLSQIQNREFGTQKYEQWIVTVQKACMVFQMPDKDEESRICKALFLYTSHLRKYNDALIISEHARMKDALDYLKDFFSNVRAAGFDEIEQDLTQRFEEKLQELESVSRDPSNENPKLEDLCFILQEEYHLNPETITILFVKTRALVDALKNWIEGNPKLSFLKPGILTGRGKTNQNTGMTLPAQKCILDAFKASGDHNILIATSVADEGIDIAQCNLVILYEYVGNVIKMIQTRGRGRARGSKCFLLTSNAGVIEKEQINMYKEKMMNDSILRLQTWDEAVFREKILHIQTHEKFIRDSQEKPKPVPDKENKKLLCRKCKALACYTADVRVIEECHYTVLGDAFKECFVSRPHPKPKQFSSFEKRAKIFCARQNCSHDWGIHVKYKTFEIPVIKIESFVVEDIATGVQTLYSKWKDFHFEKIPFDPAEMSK
Description: as §1, §2

[4] = target: T4, mouse TLR9 (Mus musculus, UniProt Q9EQU3); experiment: Inhibition of mouse TLR9 in mouse acute challenge model over time (serum IL-12); type: in vivo; conditions: 5 mg/Kg intra-peritoneal, serum IL-12 two, four and twenty-four hours after agonist
T4 construct: Balb/c mice (Charles River); host or cells: Balb/c mice, in vivo
T4 sequence (Q9EQU3 26-1032): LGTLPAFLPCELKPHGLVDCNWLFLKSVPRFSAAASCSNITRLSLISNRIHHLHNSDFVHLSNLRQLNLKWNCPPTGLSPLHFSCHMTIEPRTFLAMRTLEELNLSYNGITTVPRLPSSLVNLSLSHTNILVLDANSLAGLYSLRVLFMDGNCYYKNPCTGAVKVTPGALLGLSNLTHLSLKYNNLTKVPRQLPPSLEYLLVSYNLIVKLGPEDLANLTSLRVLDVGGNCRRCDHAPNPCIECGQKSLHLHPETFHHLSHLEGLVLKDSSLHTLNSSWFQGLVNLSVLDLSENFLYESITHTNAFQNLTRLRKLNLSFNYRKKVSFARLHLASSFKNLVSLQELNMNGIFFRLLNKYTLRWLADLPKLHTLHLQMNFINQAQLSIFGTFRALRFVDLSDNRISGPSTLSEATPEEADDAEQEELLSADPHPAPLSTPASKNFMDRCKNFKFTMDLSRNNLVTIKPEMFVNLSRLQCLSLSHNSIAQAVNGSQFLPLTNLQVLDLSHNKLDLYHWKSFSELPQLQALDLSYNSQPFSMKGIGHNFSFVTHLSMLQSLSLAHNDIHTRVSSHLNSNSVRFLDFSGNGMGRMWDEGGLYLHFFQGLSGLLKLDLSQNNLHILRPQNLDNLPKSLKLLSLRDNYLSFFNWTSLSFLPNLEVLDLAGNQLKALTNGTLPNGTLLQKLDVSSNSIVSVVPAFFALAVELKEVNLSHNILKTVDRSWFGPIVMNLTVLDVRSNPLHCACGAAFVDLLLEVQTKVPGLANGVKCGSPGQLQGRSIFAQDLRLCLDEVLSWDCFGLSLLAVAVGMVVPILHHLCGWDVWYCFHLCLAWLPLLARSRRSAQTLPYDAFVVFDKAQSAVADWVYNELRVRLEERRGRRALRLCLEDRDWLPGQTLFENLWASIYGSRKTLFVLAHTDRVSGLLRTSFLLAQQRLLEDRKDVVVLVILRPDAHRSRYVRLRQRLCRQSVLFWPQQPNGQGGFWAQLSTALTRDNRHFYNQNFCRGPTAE
Description: Example B4-a—Inhibition of Mouse TLR9 in Mouse Acute Challenge Model Over Time
When administered a CpG-containing DNA oligonucleotide, mice respond in an acute manner with release of cytokines into the peripheral blood within 6 hours. The addition of an inhibitor against TLR9 will attenuate the response to the DNA oligonucleotide agonist, which can be measured through a reduction in serum cytokines.
Balb/c mice (Charles River). TLR9 agonist 1018 ISS, CpG-containing DNA oligonucleotide. Mouse interleukin (IL)-12p40 ELISA kit (BD Pharmingen Cat. No. 551219 and 554476).
Mice were injected by the intra-peritoneal dosing route with test compound at 5 mg/kg. Following injection of test compound, mice were injected with a TLR9 agonist (a CpG-containing DNA oligonucleotide) by the intra-peritoneal route to a final dose of approximately 2.5 mg/kg. Two, four and twenty-four hours following administration of the DNA oligonucleotide, blood was collected from mice and processed to serum. The serum was tested for the presence of IL-12 using an ELISA kit. The amount of IL-12 produced is a reflection of the amount of TLR9-dependent receptor activity.

Which inhibition at 10 µM [1] does the source give for `Cc1ccc(-n2nc3c(N4CCC(CCC(=O)NCCN(C)C)CC4)nnc(C)c3c2C)cc1` [Compound No. 9, 3-(1-(3,4-dimethyl-2-(p-tolyl)-2H-pyrazolo[3,4-d]pyridazin-7-yl)piperidin-4-yl)-N-(2-(dimethylamino)ethyl)propanamide] here?
Its inhibition at 10 µM is ≤ 50%.

And the inhibition at 10 µM [2]?
Its inhibition at 10 µM is ≤ 50%.

And the IC50 ([3]; read-out: IC50 against RIG-I)?
The IC50 was 8.3 µM.

With `Cc1ccc(-n2nc3c(N4CCC(C(=O)NCCCN(C)C)CC4)nnc(C)c3c2C)cc1` [Compound No. 5, 1-(3,4-dimethyl-2-(p-tolyl)-2H-pyrazolo[3,4-d]pyridazin-7-yl)-N-(3-(dimethylamino)propyl)piperidine-4-carboxamide] as the compound, how does the inhibition at 10 µM [1] read?
The inhibition at 10 µM was ≤ 50%.

And the “inhibition of TLR9 activity in mice over time (FIG. 2)” value [4]?
The value was “inhibition of TLR9 activity”.

And the inhibition at 10 µM [2]?
Its inhibition at 10 µM is ≤ 50%.

And the inhibition at 10 µM ([3]; at 10 μM)?
Its inhibition at 10 µM is ≤ 50%.
